Where two headings read alike, the source gives them in different places.
Columns and labels:
[1] = biological target: VIM-2 (Escherichia coli, UniProt Q5U7L7); type: biochemical; settings: purified VIM-2, PD-10 column
Procedure: The eluent used was Chelex-treated HEPES 50 mM buffer, pH 7.5. […] In all experiments, 16 aliquots of 250 μL were taken from the PD-10 column runsout and enzyme activity was analysed. Enzyme activity was measured by adding Nitrocefin as a reporter substrate (final concentration of 50 μM).
To investigate if more extreme time-dependent and concentration-dependent conditions could restore enzyme activity, aliquots having final concentrations of 30 nM column-treated enzyme and 1000 μM Zn^2+ on ice and at room temperature over prolonged time.

[2] = test system: human hepG2 cells; test: In vitro toxicity in human hepG2 cells (AlamarBlue viability); type: cell-based; settings: Homo sapiens
Procedure: For viability assays, cells were seeded in white 96-well Nunclon plates at a density of 20,000 cells/well and left overnight to adhere before experiments were conducted. Zn chelators dissolved in DMSO were added to white 96-well plates containing 20000 HepG2 cells/well at concentrations ranging from 1 to 1×10^−6 mM (max DMSO concentration never exceeded 1%) and incubated for 24 hours at 37° C. After 24 hours, AlamarBlue® cell viability reagent (Thermo Fisher, Carlsbad, USA) was added (10% final concentration) and incubated for 4 hours at 37° C.

[3] = test system: resistant gram-negative MBL-based bacteria; test: MICx: adjuvant concentration giving carbapenem MIC ≤ 2 mg/L; type: cell-based; settings: lowest concentration of compound X that results in a MIC value of ≤ 2 mg/L for carbapenem antibiotics
Procedure: • Plate bacterial strain(s) on appropriate media: • Gram-negative bacteria with ESBLs or carbapenemases: green agar plates with 100 mg/L ampicillin • Gram-negative bacteria without β-lactamases: green agar plates • Gram-positive bacteria (Staphylococci and Enterococci): blood agar plates • Incubate o.n. at 37° C. […] (Should be used within 15 min of preparation). • Dilute the 0.5 McFarland suspension 1:100 into MH broth. […] Plate 10 μl of the dilution on MH agar plates (×2). Incubate o.n. at 37° C., count the colonies and calculate the final CFU/ml inoculum in the plate by multiplying the average number of colonies with 10000 and divide by 2. The final inoculum should be between 3-7×10^5 CFU/ml. • Add 50 μl of the prepared bacterial suspension to each well in the microtiter plate except negative growth control. Preparation of Compounds/Antibiotics • Calculate the desired concentration-range and volume of the compounds/antibiotics in the assay. […] Dilute the stock solution in MH broth. Make subsequent 2-fold dilutions in MH broth of the desired concentrations if a concentration range is to be tested (remember the extra dilution factor in the assay plate). Always include extra volume for pipetting. Take into consideration stock solutions that are made in buffers that have an effect on bacterial growth (e.g. DMSO).

[4] = test system: K. pneumoniae K66-45 and P. aeruginosa K34-7; test: Microbroth dilution MIC, carbapenem + inhibitor, two resistant clinical isolates; type: cell-based; settings: with meropenem
Procedure: • Plate bacterial strain(s) on appropriate media: • Gram-negative bacteria with ESBLs or carbapenemases: green agar plates with 100 mg/L ampicillin • Gram-negative bacteria without β-lactamases: green agar plates • Gram-positive bacteria (Staphylococci and Enterococci): blood agar plates • Incubate o.n. at 37° C. Day 2: Prepare the Bacterial Inoculum: • Prepare a 0.5 McFarland suspension of bacteria in 0.85% NaCl. (Should be used within 15 min of preparation). • Dilute the 0.5 McFarland suspension 1:100 into MH broth. Check the inoculum by diluting the prepared bacterial suspension 1:100 (10 μl bacterial suspension+990 μl 0.85% NaCl). Plate 10 μl of the dilution on MH agar plates (×2). Incubate o.n. at 37° C., count the colonies and calculate the final CFU/ml inoculum in the plate by multiplying the average number of colonies with 10000 and divide by 2. The final inoculum should be between 3-7×10^5 CFU/ml. • Add 50 μl of the prepared bacterial suspension to each well in the microtiter plate except negative growth control. Preparation of Compounds/Antibiotics • Calculate the desired concentration-range and volume of the compounds/antibiotics in the assay. […] Dilute the stock solution in MH broth. Make subsequent 2-fold dilutions in MH broth of the desired concentrations if a concentration range is to be tested (remember the extra dilution factor in the assay plate). Always include extra volume for pipetting. Take into consideration stock solutions that are made in buffers that have an effect on bacterial growth (e.g. DMSO).

SMILES | adjuvant effect at an inhibitor concentration of 25 mg/L [4] | other results
O=C(O)CN(CCN(CC(=O)O)CC(=O)O)CC(=O)O [EDTA, ethylenediaminetetra-acetic acid, reference compound] | – | irreversibility of VIM-2 inhibition [1]: did not inhibit VIM-2 irreversibly; IC50 ([2]; HepG2, estimated values (footnote c), read-out: IC50h): 30 µM; MICx [3]: 15 µM
CN(C[C@H](O)[C@@H](O)[C@H](O)[C@H](O)CO)C(=O)c1ccc(CN(Cc2ccccc2)Cc2ccccc2)nc1 [Example 185, 6-((dibenzylamino)methyl)-N-methyl-N-((2S,3R,4R,5R)-2,3,4,5,6-pentahydroxyhexyl)nicotinamide] | completely abolishes the adjuvant effect | –
CN(C[C@H](O)[C@@H](O)[C@H](O)[C@H](O)CO)C(=O)c1ccc(CN(Cc2ccccn2)Cc2ccccn2)s1 [Example 182, 5-((bis(pyridin-2-ylmethyl)amino)methyl)-N-methyl-N-((2S,3R,4R,5R)-2,3,4,5,6-pentahydroxyhexyl)thiophene-2-carboxamide] | completely abolishes the adjuvant effect | –
CN(C[C@H](O)[C@@H](O)[C@H](O)[C@H](O)CO)C(=O)c1ccc(CN(Cc2ccccc2)Cc2ccccn2)nc1 [Example 187, 6-((benzyl(pyridin-2-ylmethyl)amino)methyl)-N-methyl-N-((2S,3R,4R,5R)-2,3,4,5,6-pentahydroxyhexyl)nicotinamide] | completely abolishes the adjuvant effect | –
COC(=O)c1ccc(CN(Cc2ccccn2)Cc2ccccn2)s1 [Example 180, Methyl 5-((bis(pyridin-2-ylmethyl)amino)methyl)thiophene-2-carboxylate] | completely abolishes the adjuvant effect | IC50 ([2]; HepG2, 24 h): ~80 µM
